Data on eleven molecules can be found in article PMC8330740, “Discovery of new 3-methylquinoxalines as potential anti-cancer agents and apoptosis inducers targeting VEGFR-2: design, synthesis, and in silico studies” (Journal of Enzyme Inhibition and Medicinal Chemistry, 2021).

SMILES strings stand for the structures.

In data set [1] the test system is HepG2 (human liver carcinoma cell line). The data set can be described thus: MTT cytotoxicity assay, HepG2. It is filed as cell-based. Particulars: mean of at least three different experiments. The protocol:
(§1) In vitro cytotoxicity was carried out using MTT assay protocol[47]^,[65–67] as described in Supplementary data.

Data set [2] deals with Human VEGFR-2 (Homo sapiens, UniProt P35968). The data set can be described thus: In vitro VEGFR-2 kinase assay (Human VEGFR-2 ELISA kit).
Data set [3] deals with MCF-7 (human breast cancer cell line). The experiment in a line: MTT cytotoxicity assay, MCF-7. Type of data set: cell-based. Particulars: for IC50: Homo sapiens, MCF7, MTT assay, mean of at least three different experiments; for Cytotoxic activity against the two cell lines (in words): MCF-7 and HepG2 together. The method, then:
as §1

Human VEGFR-2, sequence (P35968 20-1356): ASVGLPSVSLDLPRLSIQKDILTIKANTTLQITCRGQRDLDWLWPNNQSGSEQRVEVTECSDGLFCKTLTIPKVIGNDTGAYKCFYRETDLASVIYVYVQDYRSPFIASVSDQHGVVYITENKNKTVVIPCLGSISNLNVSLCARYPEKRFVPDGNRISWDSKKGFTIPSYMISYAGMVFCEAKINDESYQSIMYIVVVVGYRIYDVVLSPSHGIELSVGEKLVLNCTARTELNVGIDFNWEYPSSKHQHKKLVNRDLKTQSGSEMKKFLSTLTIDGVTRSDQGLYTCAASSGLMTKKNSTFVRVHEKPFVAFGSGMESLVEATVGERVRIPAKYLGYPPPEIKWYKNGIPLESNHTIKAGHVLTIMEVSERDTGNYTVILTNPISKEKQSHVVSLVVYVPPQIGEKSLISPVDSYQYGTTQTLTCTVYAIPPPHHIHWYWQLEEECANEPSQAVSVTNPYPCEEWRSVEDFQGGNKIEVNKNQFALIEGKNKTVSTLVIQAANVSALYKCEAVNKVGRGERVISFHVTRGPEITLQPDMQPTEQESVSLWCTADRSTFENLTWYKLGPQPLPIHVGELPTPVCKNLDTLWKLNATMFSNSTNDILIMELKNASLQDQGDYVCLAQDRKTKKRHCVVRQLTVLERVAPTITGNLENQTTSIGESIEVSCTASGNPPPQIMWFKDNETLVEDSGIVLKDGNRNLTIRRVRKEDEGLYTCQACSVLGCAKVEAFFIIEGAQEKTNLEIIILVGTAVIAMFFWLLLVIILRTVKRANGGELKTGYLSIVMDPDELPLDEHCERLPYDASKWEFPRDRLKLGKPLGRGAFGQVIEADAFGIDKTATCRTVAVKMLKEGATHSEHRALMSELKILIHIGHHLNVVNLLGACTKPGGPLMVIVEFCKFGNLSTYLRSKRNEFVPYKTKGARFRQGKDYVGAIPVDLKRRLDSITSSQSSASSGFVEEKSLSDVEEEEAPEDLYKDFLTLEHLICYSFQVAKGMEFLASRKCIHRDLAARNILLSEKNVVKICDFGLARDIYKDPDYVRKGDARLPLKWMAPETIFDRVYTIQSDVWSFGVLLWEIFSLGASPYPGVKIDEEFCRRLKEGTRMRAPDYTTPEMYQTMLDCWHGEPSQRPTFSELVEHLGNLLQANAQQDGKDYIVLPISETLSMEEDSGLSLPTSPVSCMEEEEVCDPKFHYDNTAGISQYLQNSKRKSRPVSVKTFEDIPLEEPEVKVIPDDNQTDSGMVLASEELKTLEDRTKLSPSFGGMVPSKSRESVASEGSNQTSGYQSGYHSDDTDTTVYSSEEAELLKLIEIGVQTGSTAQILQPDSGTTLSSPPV

Regarding `CCC(C)NC(=O)c1ccc(NC(=O)CSc2nc3ccccc3nc2C)cc1` (stereo not shown) [Compound 12b, N-(sec-Butyl)-4–(2-((3-methylquinoxalin-2-yl)thio)acetamido)benzamide], the IC50 is 21.7 µM in data set [1], 15.7 nM in data set [2] and 35.7 µM in data set [3]. For the same molecule, the “Cytotoxic activity against the two cell lines (in words)” value (shortened to “Cytotoxic activity”) in data set [3] was “weak cytotoxic activity”.

In the case of `COc1ccc(NC(=O)c2ccc(NC(=O)CSc3nc4ccccc4nc3C)cc2)cc1` [Compound 12f, N-(4-Methoxyphenyl)-4–(2-((3-methylquinoxalin-2-yl)thio)acetamido) benzamide], the IC50 in data set [1] was found to be 7.5 µM; in data set [2] it was 3.8 nM; in data set [3], 10.8 µM.

Turning to `Cc1nc2ccccc2nc1SCC(=O)Nc1ccc(C(=O)Nc2ccccn2)cc1` [Compound 12i, 4–(2-((3-Methylquinoxalin-2-yl)thio)acetamido)-N-(pyridin-2-yl)benzamide], the results for the IC50 in data set [1], in data set [2] and in data set [3] were 44.7 µM, 24.1 nM and 58.6 µM, respectively.

As for `Cc1nc2ccccc2nc1SCC(=O)Nc1ccc(C(=O)NC2CCCC2)cc1` [Compound 12c, N-Cyclopentyl-4–(2-((3-methylquinoxalin-2-yl)thio)acetamido)benzamide], the results for the IC50 in data set [1], in data set [2] and in data set [3] were 18.7 µM, 19.8 nM and 31.3 µM, respectively.

For `COc1ccccc1NC(=O)c1ccc(NC(=O)Cn2c(=O)c(C)nc3ccccc32)cc1` [Compound 11d, N-(2-Methoxyphenyl)-4–(2-(3-methyl-2-oxoquinoxalin-1(2H)-yl)acetamido)benzamide], the figures for the IC50 in data set [1], in data set [2] and in data set [3] were 34.1 µM, 37.4 nM and 52.3 µM, respectively. Moreover, the “Cytotoxic activity” value in data set [3] is “weak cytotoxic activity”.

`Cc1ccc(NC(=O)c2ccc(NC(=O)CSc3nc4ccccc4nc3C)cc2)cc1` [Compound 12k, 4–(2-((3-Methylquinoxalin-2-yl)thio)acetamido)-N-(p-tolyl)benzamide]: the IC50 amounted to 6.7 µM in data set [1], 2.9 nM in data set [2] and 9.8 µM in data set [3].

Regarding `CC(=O)c1ccc(NC(=O)c2ccc(NC(=O)CSc3nc4ccccc4nc3C)cc2)cc1` [Compound 12g, N-(4-Acetylphenyl)-4–(2-((3-methylquinoxalin-2-yl)thio)acetamido)benzamide], the IC50 in data set [1] was 6.1 µM; in data set [2], 5.4 nM; in data set [3], 8.7 µM.

For `Cc1nc2ccccc2n(CC(=O)Nc2ccc(C(=O)NC3CCCC3)cc2)c1=O` [Compound 11c, N-Cyclopentyl-4–(2-(3-methyl-2-oxoquinoxalin-1(2H)-yl)acetamido)benzamide], the IC50 came out at 18.7 µM in data set [1], 12.7 nM in data set [2] and 28.1 µM in data set [3].

On to `CNC(=O)c1ccc(NC(=O)CSc2nc3ccccc3nc2C)cc1` [Compound 12a, N-Methyl-4–(2-((3-methylquinoxalin-2-yl)thio)acetamido)benzamide], for which the IC50 in data set [1] is 23.7 µM; in data set [2] it was 32.7 nM; in data set [3] it was 69.2 µM. Further, the “Cytotoxic activity” value in data set [3] was “weak cytotoxic activity”.

For the molecule `Cc1nc2ccccc2n(CC(=O)Nc2ccc(C(=O)Nc3nccs3)cc2)c1=O` [Compound 11j, 4–(2-(3-Methyl-2-oxoquinoxalin-1(2H)-yl)acetamido)-N-(thiazol-2-yl)benzamide], the IC50 in data set [1] is 27.8 µM; in data set [2], 13.4 nM; in data set [3] it was 32.8 µM. For the same molecule, the “Cytotoxic activity” value in data set [3] was “weak cytotoxic activity”.

On to `COc1ccc(NC(=O)c2ccc(NC(=O)Cn3c(=O)c(C)nc4ccccc43)cc2)cc1` [Compound 11f, N-(4-Methoxyphenyl)-4–(2-(3-methyl-2-oxoquinoxalin-1(2H)-yl)acetamido)benzamide], for which the IC50 in data set [1] turned out to be 9.6 µM; in data set [2], 4.8 nM; in data set [3] it was 12.4 µM.
